# Patent US6914045B2, “Glycopeptide antibiotics” (Wyeth Holdings Corporation, priority 2001, dated 2005)
# Assays:
# Assay in all cases: in vitro antibacterial evaluation, MIC by broth dilution
# Type in all cases: cell-based
# [1] = system: Staphylococcus sp.; conditions: broth dilution, 18 hours at 35° C.; for MIC Staphylococcus aureus (ATCC 29213): strain ATCC 29213; for MIC Staphylococcus aureus (GC 1131): strain GC 1131; for MIC Staphylococcus aureus (GC 3051): strain GC 3051; for MIC Staphylococcus aureus (GC 3053): strain GC 3053; for MIC Staphylococcus aureus (GC 4541): strain GC 4541; for MIC Staphylococcus aureus (GC 4542): strain GC 4542; for MIC Staphylococcus aureus-SMITH (GC 4543): strain GC 4543; for MIC Staphylococcus aureus (GC 4544): strain GC 4544; for MIC Staphylococcus aureus (GC 4545): strain GC 4545; for MIC Staphylococcus haemolyticus (GC 4546): strain GC 4546; for MIC Coagulase Negative Staphylococcus (GC 4547): strain GC 4547; for MIC Coagulase Negative Staphylococcus (GC 4548): strain GC 4548; for MIC Coagulase Negative Staphylococcus (GC 4549): strain GC 4549; for MIC Coagulase Negative Staphylococcus (GC 4551): strain GC 4551
# Method: (§1) Methods for in vitro Antibacterial Evaluation (Table 1)
# (§2) The minimum inhibitory concentration (MIC), the lowest concentration of the antibiotic which inhibits growth of the test organism, is determined by the broth dilution method using Muller-Hinton II […] (Baltimore Biological Laboratories) following the recommendations of the National Committee for Clinical Laboratory Standards [Methods for dilution antimicrobial susceptibility tests for bacteria that grow aerobically, approved standard M7-A2, National Committee for Clinical Laboratory Standards, Villanova, Pa.].
# (§3) An inoculum level of 5×10^5 CFU/mL, and a range of antibiotic concentrations (64-0.06 μg/mL) is used. […] The test organisms include a spectrum of Gram-positive bacteria comprised of Staphylococcus sp., Streptococcus sp. and Enterococcus sp. These organisms include recent clinical isolates that are resistant to methicillin, penicillin and/or vancomycin.
# [2] = system: Streptococcus sp.; conditions: broth dilution, 18 hours at 35° C.; for MIC Streptococcus pneumoniae (ATCC 6301): strain ATCC 6301; for MIC Streptococcus pneumoniae (GC 1894): strain GC 1894; for MIC Streptococcus pyogenes (GC 4563): strain GC 4563; for MIC Streptococcus agalactiae (GC 4564): strain GC 4564; for MIC Streptococcus pneumoniae (GC 4565): strain GC 4565
# Method: as §1, §2, §3
# [3] = system: Enterococcus sp.; conditions: broth dilution, 18 hours at 35° C.; for MIC Enterococcus faecalis (ATCC 29212): strain ATCC 29212; for MIC Enterococcus faecalis (GC 2242): strain GC 2242; for MIC Enterococcus faecium (GC 2243): strain GC 2243; for MIC Enterococcus faecalis (GC 2691): strain GC 2691; for MIC Enterococcus faecalis (GC 3059): strain GC 3059; for MIC Enterococcus faecalis (GC 4552): strain GC 4552; for MIC Enterococcus faecalis (GC 4553): strain GC 4553; for MIC Enterococcus faecalis (GC 4554): strain GC 4554; for MIC Enterococcus faecium (GC 4556): strain GC 4556; for MIC Enterococcus faecium (GC 4557): strain GC 4557; for MIC Enterococcus avium (GC 4558): strain GC 4558; for MIC Enterococcus faecalis (GC 6189): strain GC 6189
# Method: as §1, §2, §3
# [4] = system: Escherichia coli; conditions: broth dilution, 18 hours at 35° C.; for MIC Escherichia coli (ATCC 25922): strain ATCC 25922; for MIC Escherichia coli (GC 4559): strain GC 4559; for MIC Escherichia coli (GC 4560): strain GC 4560
# Method in brief: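 Broth dilution in Muller-Hinton II medium per NCCLS standard M7-A2, with an inoculum of 5×10^5 CFU/mL and antibiotic tested over 64-0.06 μg/mL. MIC was taken as the lowest concentration inhibiting visible growth.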
MIC Staphylococcus aureus (ATCC 29213) [1],MIC Staphylococcus aureus (GC 1131) [1],MIC Staphylococcus aureus (GC 3051) [1],MIC Staphylococcus aureus (GC 3053) [1],MIC Staphylococcus aureus (GC 4541) [1],MIC Staphylococcus aureus (GC 4542) [1],MIC Staphylococcus aureus-SMITH (GC 4543) [1],MIC Staphylococcus aureus (GC 4544) [1],MIC Staphylococcus aureus (GC 4545) [1],MIC Coagulase Negative Staphylococcus (GC 4547) [1],MIC Coagulase Negative Staphylococcus (GC 4548) [1],MIC Coagulase Negative Staphylococcus (GC 4549) [1],MIC Coagulase Negative Staphylococcus (GC 4551) [1],MIC Streptococcus pneumoniae (ATCC 6301) [2],MIC Streptococcus pneumoniae (GC 1894) [2],MIC Streptococcus pyogenes (GC 4563) [2],MIC Streptococcus agalactiae (GC 4564) [2],MIC Streptococcus pneumoniae (GC 4565) [2],MIC Enterococcus faecalis (ATCC 29212) [3],SMILES,MIC Staphylococcus haemolyticus (GC 4546) [1],other results
32 µg/mL,16 µg/mL,16 µg/mL,16 µg/mL,16 µg/mL,16 µg/mL,16 µg/mL,16 µg/mL,16 µg/mL,4 µg/mL,8 µg/mL,4 µg/mL,16 µg/mL,16 µg/mL,8 µg/mL,8 µg/mL,16 µg/mL,32 µg/mL,64 µg/mL,CC(c1ccccc1)C1NC(=O)CNC(=O)C(CO)NC(=O)C(C(O)C2CNC(=N)N2C2OC(CO)C(O)C(O)C2O)NC(=O)C(C(O)C2CNC(=N)N2)NC(=O)C(Cc2ccc3oc(SCC(=O)c4ccccc4)nc3c2)NC1=O (centres unmarked) [Example 48],8 µg/mL,MIC Enterococcus faecalis (GC 2242) [3]: 64 µg/mL; MIC Enterococcus faecium (GC 2243) [3]: 16 µg/mL; MIC Enterococcus faecalis (GC 2691) [3]: 64 µg/mL; MIC Enterococcus faecalis (GC 3059) [3]: 64 µg/mL; MIC Enterococcus faecalis (GC 4552) [3]: 64 µg/mL; MIC Enterococcus faecalis (GC 4553) [3]: 16 µg/mL; MIC Enterococcus faecalis (GC 4554) [3]: 64 µg/mL; MIC Enterococcus faecium (GC 4556) [3]: 64 µg/mL; MIC Enterococcus faecium (GC 4557) [3]: 4 µg/mL; MIC Enterococcus avium (GC 4558) [3]: 8 µg/mL; MIC Enterococcus faecalis (GC 6189) [3]: 64 µg/mL; MIC Escherichia coli (ATCC 25922) [4]: 32 µg/mL; MIC Escherichia coli (GC 4559) [4]: 32 µg/mL; MIC Escherichia coli (GC 4560) [4]: 4 µg/mL
8 µg/mL,4 µg/mL,4 µg/mL,4 µg/mL,4 µg/mL,4 µg/mL,2 µg/mL,4 µg/mL,2 µg/mL,4 µg/mL,2 µg/mL,1 µg/mL,4 µg/mL,8 µg/mL,8 µg/mL,2 µg/mL,4 µg/mL,8 µg/mL,16 µg/mL,CC(c1ccccc1)C1NC(=O)CNC(=O)C(CO)NC(=O)C(C(O)C2CNC(=N)N2C2OC(CO)C(O)C(O)C2O)NC(=O)C(C(O)C2CNC(=N)N2)NC(=O)C(Cc2ccc3oc(SCC(=O)c4ccc(Cl)cc4)nc3c2)NC1=O (centres unmarked) [Example 49],1 µg/mL,MIC Enterococcus faecalis (GC 2242) [3]: 16 µg/mL; MIC Enterococcus faecium (GC 2243) [3]: 8 µg/mL; MIC Enterococcus faecalis (GC 2691) [3]: 16 µg/mL; MIC Enterococcus faecalis (GC 3059) [3]: 32 µg/mL; MIC Enterococcus faecalis (GC 4552) [3]: 2 µg/mL; MIC Enterococcus faecalis (GC 4553) [3]: 4 µg/mL; MIC Enterococcus faecalis (GC 4554) [3]: 16 µg/mL; MIC Enterococcus faecium (GC 4556) [3]: 8 µg/mL; MIC Enterococcus faecium (GC 4557) [3]: 2 µg/mL; MIC Enterococcus avium (GC 4558) [3]: 4 µg/mL; MIC Enterococcus faecalis (GC 6189) [3]: 16 µg/mL; MIC Escherichia coli (ATCC 25922) [4]: 16 µg/mL; MIC Escherichia coli (GC 4559) [4]: 8 µg/mL; MIC Escherichia coli (GC 4560) [4]: 4 µg/mL
